Experimental data: patent US12472195B2, “Inhalation formulations of antimicrobial compounds” (priority 2020, dated 2025)
Where two headings read alike, the source gives them in different places.

Tests used:
mouse lung tissue = test: Lung histology examination after intratracheal administration in mice
Protocol: The animal study was approved by the Animal Ethics Committee of the Monash Institute of Pharmaceutical Sciences, Monash University (Parkville, Victoria, Australia). All experiments were conducted in accordance with the Australian Code of Practice for the Care and Use of Animals for Scientific Purposes. Swiss Albino mice (female; age, 6 weeks; body weight, 20 to 25 g) were obtained from the Monash Animal Research Platform (Clayton, Victoria, Australia). […] The animals were housed individually in metabolic cages and had free access to food and water. Mice were intratracheally administered 10 mg/kg of polymyxin B, 60 mg/kg of tobramycin and the combination of tobramycin with polymyxin B in sterile 0.9% saline three times a day and lung histology examination were conducted in a blind manner.

[1] = system: human lung epithelial A549 cells
Protocol: Human lung epithelial cells (A549 cells) were obtained from American Type Culture Collection (ATCC® CCL-185™, Manassas, VA, USA), grown and sub-cultured in Dulbecco's modified Eagle's medium (DMEM) supplemented with 10% fetal bovine serum (FBS). A549 cells (1×10^5 cells/mL, 12-well plate) were seeded in supplemented DMEM at 37° C. in a humidified atmosphere containing 5% CO2 until 80% confluency. All experiments were conducted in three replicates. Cells were treated with 1.0 mM polymyxin B in the presence and absence of tobramycin (1.0, 3.0, 5.0, 10.0 and 20.0 mM), amikacin (5.0 and 20.0 mM), gentamicin (5.0, 10.0 and 20.0 mM) and plazomicin (5.0 and 20.0 mM) in supplemented DMEM (1% FBS); and cell viability were examined at 24h with flow cytometry after staining with propidium iodide.

[2] = mice, intratracheal, three times a day, 10 mg/kg polymyxin B, 60 mg/kg tobramycin, or both

NC[C@H]1O[C@H](O[C@H]2[C@H](O)[C@@H](O[C@H]3O[C@H](CO)[C@@H](O)[C@H](N)[C@H]3O)[C@H](N)C[C@@H]2N)[C@H](N)C[C@@H]1O [Tobramycin, tobramycin]
effect on polymyxin B-induced pulmonary toxicity (mouse lung tissue; mouse, in vivo): significantly reduced | cell viability ([1]; human, 24 h, 20 mM): 87.4±1.6%

polymyxin B
area of lung tissue affected by damage (mouse lung tissue; [2]): 25-50% | semi-quantitative score (SQS) of lung histology (mouse lung tissue; [2]): +2 to +5 | cell viability ([1]; 1.0 mM polymyxin B alone, A549 cells, 24h, mean±SD n=3): 40.7±7.4%
